Test results taken from the NIST ThermoML archive (doi:10.1021/je049818g).
± gives the expanded uncertainty stated by the source.

Conditions: Liquid, Hot wire method

## CCCCOCCO [2-butoxyethan-1-ol]
283.96 K
  thermal conductivity: 0.1381 ± 0.0056 W/m/K
293.67 K
  thermal conductivity: 0.1365 ± 0.0055 W/m/K
303.56 K
  thermal conductivity: 0.135 ± 0.0054 W/m/K
314.25 K
  thermal conductivity: 0.1333 ± 0.0054 W/m/K
323.88 K
  thermal conductivity: 0.1319 ± 0.0053 W/m/K
333.98 K
  thermal conductivity: 0.1305 ± 0.0053 W/m/K
344.05 K
  thermal conductivity: 0.129 ± 0.0052 W/m/K
354.63 K
  thermal conductivity: 0.1272 ± 0.0051 W/m/K
363.59 K
  thermal conductivity: 0.1258 ± 0.0051 W/m/K
373.84 K
  thermal conductivity: 0.1241 ± 0.005 W/m/K

## CCC(C)=O [butanone]
284.48 K
  thermal conductivity: 0.1501 ± 0.006 W/m/K
294.42 K
  thermal conductivity: 0.1481 ± 0.006 W/m/K
305.02 K
  thermal conductivity: 0.1459 ± 0.0059 W/m/K
314.26 K
  thermal conductivity: 0.1435 ± 0.0058 W/m/K
323.96 K
  thermal conductivity: 0.1414 ± 0.0057 W/m/K
334.71 K
  thermal conductivity: 0.139 ± 0.0056 W/m/K
344.54 K
  thermal conductivity: 0.1362 ± 0.0055 W/m/K
354.33 K
  thermal conductivity: 0.1334 ± 0.0054 W/m/K
364.46 K
  thermal conductivity: 0.1308 ± 0.0053 W/m/K
374.56 K
  thermal conductivity: 0.1284 ± 0.0052 W/m/K

## COC [dimethyl ether]
229.67 K
  thermal conductivity: 0.1832 ± 0.0074 W/m/K
244.98 K
  thermal conductivity: 0.1762 ± 0.0071 W/m/K
254.6 K
  thermal conductivity: 0.1701 ± 0.0068 W/m/K
271.55 K
  thermal conductivity: 0.1605 ± 0.0064 W/m/K
281.76 K
  thermal conductivity: 0.1537 ± 0.0062 W/m/K
291.33 K
  thermal conductivity: 0.1485 ± 0.006 W/m/K

## Cc1ccccc1 [toluene]
234.6 K
  thermal conductivity: 0.1477 ± 0.0059 W/m/K
254.58 K
  thermal conductivity: 0.1434 ± 0.0058 W/m/K
273.17 K
  thermal conductivity: 0.1374 ± 0.0055 W/m/K
293.23 K
  thermal conductivity: 0.1334 ± 0.0054 W/m/K
314.68 K
  thermal conductivity: 0.1264 ± 0.0051 W/m/K
334.99 K
  thermal conductivity: 0.1211 ± 0.0049 W/m/K
354.89 K
  thermal conductivity: 0.1136 ± 0.0046 W/m/K
373.92 K
  thermal conductivity: 0.1105 ± 0.0044 W/m/K
